Data taken from patent US4546098A, “Estrogen synthesis inhibitors” (The Rockefeller University, priority 1984, dated 1985).

Target: T1, aromatase (Homo sapiens, UniProt P11511)
T1 construct: incubated with 5 ml of a placental microsomes; from tissue; host or cells: placental microsomes
T1 sequence (P11511 1-503): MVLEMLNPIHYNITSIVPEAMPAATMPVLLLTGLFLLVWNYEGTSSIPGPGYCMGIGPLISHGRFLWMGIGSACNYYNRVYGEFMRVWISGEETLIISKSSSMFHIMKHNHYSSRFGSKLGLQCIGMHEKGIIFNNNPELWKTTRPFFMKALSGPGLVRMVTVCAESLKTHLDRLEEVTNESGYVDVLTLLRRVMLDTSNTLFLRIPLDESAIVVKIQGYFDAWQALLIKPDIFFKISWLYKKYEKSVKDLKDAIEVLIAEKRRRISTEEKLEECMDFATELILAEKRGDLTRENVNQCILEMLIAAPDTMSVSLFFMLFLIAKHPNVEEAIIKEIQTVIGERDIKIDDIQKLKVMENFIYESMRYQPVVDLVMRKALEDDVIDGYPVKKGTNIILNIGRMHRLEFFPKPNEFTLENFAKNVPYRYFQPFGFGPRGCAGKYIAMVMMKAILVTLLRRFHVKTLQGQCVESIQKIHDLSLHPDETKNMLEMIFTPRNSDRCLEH
Experiment: Inhibition of formic acid formation from [19,19,19-3H]androst-4-ene-3,17-dione by placental microsomes
Format: biochemical
Conditions: placental microsomes 1 mg/ml (5 ml), pH 7.2, 37° C., 30 minutes; inhibitor 4 n mole, androstenedione 4 n mole; NADPH
Experimental: A mixture of [19,19,19-^3 H]androst-4-ene-3,17-dione diluted with cold androstenedione (2.8×10^6 dpm, 4 n mole) and an inhibitor (4 n mole) in ethanol (50 μl) was incubated with 5 ml of a placental microsomes (1 mg/ml of 0.05M tris-HCl, pH 7.2) in the presence of NADPH (5 mg), glucose-6-phosphate (2.5 mg), and glucose-6-phosphate dehydrogenase (3.1 units). The incubations were carried out at 37° C. for 30 minutes in air. A control incubation was carried out as above except that the inhibitor was excluded. The incubation mixture (1 ml) was mixed with 1M phosphoric acid (1 ml), flash frozen and lyophilized. Radioactivity in 0.5 ml of the distilled component was measured (A). And 1.2 ml of the distilled component was mixed with 0.3 ml of 1N sodium hydroxide, flash frozen, and lyophilized. Radioactivity in 0.5 ml of the distilled water was measured (B).

Compound	% Inhibition of formic acid formation [%]
C=C1C=C2CC[C@@H]3[C@H](CC[C@]4(C)C(=O)CC[C@@H]34)[C@@]2(C=O)CC1 [Cmpd. 53, 3-Methylene-androst-4-ene-17,19-dione]	70
C=C1C=C2CC[C@H]3[C@@H]4CC[C@H](O)[C@@]4(C)CC[C@@H]3[C@@]2(C)CC1 [Cmpd. 1, 3-methylene-androst-4-ene-17β-ol]	43
C=C1C=C2CC[C@@H]3[C@H](CC[C@]4(C)C(=O)CC[C@@H]34)[C@@]2(C)CC1 [Cmpd. 3, 3-methylene-androst-4-ene-17-one]	86
C=C1C=C2CC[C@@H]3[C@H](CC[C@]4(C)[C@@H](O)CC[C@@H]34)[C@@]2(CO)CC1 [Cmpd 5, 3-methylene-androst-4-ene-17β,19-diol]	55
C=C1C=C2CC[C@@H]3[C@H](CC[C@]4(C)C(=O)CC[C@@H]34)[C@@]2(CO)CC1 [Cmpd. 9, 3-methylene-androst-4-ene-19-ol-17-one]	90
